{"source": "patent US11964943B2", "about": "“3,5-diarylidenyl-n-substituted-piperid-4-one-derived inhibitors of Stat3 pathway activity and uses thereof” (priority 2017, dated 2024)", "tested_on": "cisplatin-produced DNA interstrand crosslinks", "assay": "Modified single cell gel electrophoresis (comet) assay", "type": "cell-based", "protocol": "The following procedure for the modified single-cell gel electrophoresis (comet) assay [Hartley. J. M., et al. Drug-DNA Interact. Protoc. Methods Mol. Biol. 2010, 613, 267] was applied to measure DNA interstrand crosslinking (ICL) induced by platinum drug in DU145 and A549 cells. Exponentially growing cells were treated for 1 h with different concentrations of cisplatin and collected after 0, 9, 24 and 48 h. All procedures were carried out on ice. Cells were diluted to a final concentration of 2.5×10^4 cells/ml and irradiated with X-ray (15 Gy) in order to deliver a fixed number of random DNA strand breaks (except for the untreated unirradiated control). Cells were embedded in 1% agarose on a precoated microscope slide, and each sample was prepared in duplicate. […] Images were captured using an on-line CCD camera and analysed using the Komet Analysis software 4.02 (Andor Technology, Belfast, UK). […] 25 cells were analysed. The tail moment for each image was calculated as the product of the percentage of DNA in the comet tail and the distance between the means of the head and tail distributions (Olive P. L., et al, Radiat Res 122, 86). DNA ICL after drug treatment was expressed as the percentage decrease in tail moment compared with irradiated controls calculated by the formula: % Decrease in tail moment=[1−(TMdi−TMcu/Tci−TMcu)]×100 […]"}
{"molecule": "COc1cc(/C=C2\\CN(c3ccccc3)C/C(=C\\c3cc(OC)c(OC)c(OC)c3)C2=O)cc(OC)c1OC", "note": "[IE-8, 3,5-Di(3,4,5-trimethoxybenzylidene)-1-phenylpiperidin-4-one]", "values": [{"measurement": "persistence of DNA ICLs in combination treatment", "setting": "DU145, IE-8 pretreatment then cisplatin 1 h", "result": "up to 48 h"}, {"measurement": "unhooking (repair) of cisplatin-produced DNA ICLs", "setting": "DU145 and A549 cells, IE-8 pretreatment overnight or 1 h before cisplatin", "result": "impairs the ‘unhooking’ of the cisplatin-produced ICLs"}]}
